Measurements reported in ChEMBL document CHEMBL1153249, “Conversion of 4-cyanomethyl-pyrazole-3-carboxamides into CB1 antagonists with lowered propensity to pass the blood-brain-barrier” (Bioorg Med Chem Lett, 2010).
In brackets after ≈: the same amount, converted by molar mass. Activity calls are given as the source filed them. The rule behind the calls is not given here.

Columns and labels:
[1] = Solubility of the compound; type: physicochemical
[2] = target: T1, Cannabinoid receptor 1 (Homo sapiens, UniProt P21554); type: functional, cell-based, CHO-K1
Description: Antagonist activity at human CB1 receptor expressed in CHO-K1 cells assessed as inhibition of CP-55940-induced GTPgammaS binding

[3] = Oral bioavailability in rat; type: ADME, organism-based; settings: in vivo
[4] = Ratio of drug level in plasma to brain in rat at 5 mg/kg, po after 6 hrs; type: ADME, organism-based; design: dose 5 mg/kg, route oral; settings: in vivo
[5] = target: T1, Cannabinoid receptor 1; assay: Inverse agonist activity at human CB1 receptor expressed in CHO-K1 cells by GTPgammaS binding assay; type: functional, cell-based
[6] = Lipophilicity, log D by chromatography; type: physicochemical
[7] = target: T1, Cannabinoid receptor 1; assay: Displacement of [3H]CP-55940 from human CB1 receptor expressed in CHO-K1 cells; type: cell-based
[8] = Stability in rat microsomes assessed as compound remaining after 30 mins; type: ADME, Microsome; settings: read-out: Stability
[9] = Oral bioavailability in mouse; type: ADME, organism-based; settings: in vivo
[10] = Bioavailability in ip dosed rat; type: ADME, organism-based; settings: in vivo
[11] = Ratio of drug level in plasma to brain in rat at 10 mg/kg, ip after 6 hrs; type: ADME, organism-based; design: dose 10 mg/kg, route intraperitoneal; settings: in vivo
[12] = Stability in rat microsomes after 30 mins; type: ADME, Microsome; settings: 0.5 h
[13] = Stability in mouse microsomes after 30 mins; type: ADME, Microsome; settings: 0.5 h
[14] = target: T1, Cannabinoid receptor 1; assay: biochemical; type: cell-based, COS-7
Description: Displacement of [3H]CP-55940 from human CB1 receptor expressed in COS7 cells

[15] = Ratio of drug level in plasma to brain in mouse at 10 mg/kg, po after 6 hrs; type: ADME, organism-based; design: dose 10 mg/kg, route oral; settings: in vivo
[16] = Selectivity for human CB1 receptor over CB2 receptor by GTPgammaS binding assay
[17] = Ratio of drug level in plasma to brain in mouse at 10 mg/kg, po after 3 hrs; type: ADME, organism-based; design: dose 10 mg/kg, route oral; settings: in vivo
[18] = system: Mus musculus; assay: Reduction in body weight in diet-induced obese mouse at 10 mg/kg, po; type: functional; design: scale not given: the % may be the effect or the level left
[19] = system: Mus musculus; assay: Reduction in body weight in diet-induced obese mouse at 3 mg/kg, po; type: functional; design: scale not given: the % may be the effect or the level left
[20] = Ratio of drug level in plasma to brain in po dosed diet-induced obese mouse after 6 hrs; type: ADME, organism-based; settings: in vivo
[21] = system: Mus musculus; assay: Reduction in WIN-55212-induced hypothermia in mouse at 10 mg/kg po pretreated 40 mins prior to WIN-55212 challenge measured after 1 hr; type: functional, organism-based; design: dose 10 mg/kg
[22] = system: Mus musculus; assay: Reduction in WIN-55212-induced hypothermia in mouse at 1 mg/kg po pretreated 40 mins prior to WIN-55212 challenge measured after 1 hr; type: functional, organism-based; design: dose 1 mg/kg

T1 sequence (P21554 whole entry): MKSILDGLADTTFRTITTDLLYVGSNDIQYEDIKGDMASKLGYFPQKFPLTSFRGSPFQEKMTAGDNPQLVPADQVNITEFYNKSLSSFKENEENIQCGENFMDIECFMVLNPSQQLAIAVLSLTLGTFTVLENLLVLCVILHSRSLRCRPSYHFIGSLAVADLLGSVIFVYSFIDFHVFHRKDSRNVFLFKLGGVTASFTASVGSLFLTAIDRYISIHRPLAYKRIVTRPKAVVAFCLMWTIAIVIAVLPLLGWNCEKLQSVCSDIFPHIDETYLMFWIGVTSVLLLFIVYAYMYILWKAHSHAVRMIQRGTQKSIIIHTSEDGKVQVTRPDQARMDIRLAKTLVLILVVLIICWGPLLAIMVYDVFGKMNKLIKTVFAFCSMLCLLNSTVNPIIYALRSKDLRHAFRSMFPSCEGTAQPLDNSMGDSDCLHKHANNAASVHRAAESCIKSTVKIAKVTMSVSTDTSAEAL

| Structure (SMILES) | solubility ([1]; read-out: solubility) | IC50 [2] | IC50 [5] | chromatographic logD [6] | IC50 [7] | other results |
| --- | --- | --- | --- | --- | --- | --- |
| Cc1ccncc1NC(=O)c1nn(-c2ccccc2Cl)c(-c2ccc(Cl)cc2)c1CC(N)=O | 200 µM (≈ 96.1 µg/mL) | 3 nM | 1.7 nM | 2.4 | 0.55 nM | bioavailability [3]: 39%; Ratio [4]: 1.2; remaining at 0.5 h [8]: 63% |
| NC(=O)Cc1c(C(=O)N2CCC(C(=O)O)(c3ccccn3)CC2)nn(-c2ccccc2Cl)c1-c1ccc(Cl)cc1 | 425 µM (≈ 246 µg/mL) | 16 nM | 10 nM | 1.5 | 23 nM |  |
| NC(=O)Cc1c(C(=O)N2CCC(C(=O)O)(c3ccc(F)cn3)CC2)nn(-c2ccccc2Cl)c1-c1ccc(Cl)cc1 | 500 µM (≈ 298 µg/mL) | 30 nM |  | 1.6 |  | bioavailability [9]: 4% |
| N=C(N)Cc1c(C(=O)Nc2ccc(F)cc2)nn(-c2ccccc2Cl)c1-c1ccc(Cl)cc1 |  | 1.5 nM |  |  |  | bioavailability [10]: 19%; Ratio [11]: 3.2; Stability [12]: Stable; Stability [13]: Stable |
| N#Cc1ccc(N2CCN(C(=O)c3nn(-c4ccccc4Cl)c(-c4ccc(Cl)cc4)c3CC(N)=O)CC2)nc1 |  | 1.2 nM | 1.4 nM | 2.8 | 4.6 nM |  |
| N#CC1(c2ccccc2)CCN(C(=O)c2nn(-c3ccccc3Cl)c(-c3ccc(Cl)cc3)c2CC(N)=O)CC1 | 9 µM (≈ 5.03 µg/mL) | 0.23 nM | 0.11 nM | 3.4 | 0.78 nM |  |
| NC(=O)Cc1c(C(=O)N2CCC(O)(c3ccc(F)cn3)CC2)nn(-c2ccccc2Cl)c1-c1ccc(Cl)cc1 | 290 µM (≈ 165 µg/mL) |  | 2.1 nM | 2.5 |  | IC50 [14]: 5.5 nM |
| NC(=O)Cc1c(C(=O)N2CCC(O)(c3ccccn3)CC2)nn(-c2ccccc2Cl)c1-c1ccc(Cl)cc1 | 400 µM (≈ 220 µg/mL) | 3.6 nM | 2 nM | 2.3 | 1.9 nM | Ratio [15]: 10.2; Selectivity ratio [16]: 1000 |
| N=C(Cc1c(C(=O)N2CCC(c3ccccc3F)CC2)nn(-c2ccccc2Cl)c1-c1ccc(Cl)cc1)NO |  | 0.54 nM |  |  |  |  |
| NC(=O)Cc1c(C(=O)N2CCC(O)(c3ccccc3)CC2)nn(-c2ccccc2Cl)c1-c1ccc(Cl)cc1 | 105 µM (≈ 57.7 µg/mL) | 0.26 nM | 0.11 nM | 2.7 |  | IC50 [14]: 2.9 nM |
| NC(=O)Cc1c(C(=O)NC2CCN(C(=O)C3CC3)CC2)nn(-c2ccccc2Cl)c1-c1ccc(Cl)cc1 | 80 µM (≈ 43.2 µg/mL) |  | 1.2 nM | 2.3 | 3.7 nM | Ratio [15]: 6.1 |
| N=C(Cc1c(C(=O)NN2CCCCC2)nn(-c2ccccc2Cl)c1-c1ccc(Cl)cc1)NO |  | 1.8 nM | 1.3 nM |  |  | Ratio [17]: 1.2 |
| NC(=O)Cc1c(C(=O)NN2CCOCC2)nn(-c2ccccc2Cl)c1-c1ccc(Cl)cc1 |  | 7 nM | 1.7 nM | 1.8 | 7.9 nM |  |
| N=C(Cc1c(C(=O)NN2CCOCC2)nn(-c2ccccc2Cl)c1-c1ccc(Cl)cc1)NO |  | 51 nM |  |  |  |  |
| NC(=O)Cc1c(C(=O)N2CCC(O)(c3ccc(F)cc3)CC2)nn(-c2ccccc2Cl)c1-c1ccc(Cl)cc1 | 75 µM (≈ 42.6 µg/mL) | 0.19 nM | 0.1 nM | 2.8 | 2.6 nM | Activity [18]: 15.1%; Activity [19]: 5.6%; Ratio [15]: 10.2; Ratio [20]: 13; Activity [21]: inactive; bioavailability [3]: 70%; bioavailability [9]: 100%; Selectivity ratio [16]: 1000 |
| N=C(N)Cc1c(C(=O)N2CCC(O)(c3ccc(F)cc3)CC2)nn(-c2ccccc2Cl)c1-c1ccc(Cl)cc1 |  | 1.9 nM |  |  |  |  |
| NC(=O)Cc1c(C(=O)N2CCC(c3ccccc3F)CC2)nn(-c2ccccc2Cl)c1-c1ccc(Cl)cc1 |  | 0.51 nM |  |  |  |  |
| N#CN1CCC(CNC(=O)c2nn(-c3ccccc3Cl)c(-c3ccc(Cl)cc3)c2CC(N)=O)CC1 | 16 µM (≈ 8.18 µg/mL) | 0.66 nM | 0.49 nM | 2.9 |  | IC50 [14]: 0.34 nM |
| N=C(N)Cc1c(C(=O)N2CCC(c3ncccn3)CC2)nn(-c2ccccc2Cl)c1-c1ccc(Cl)cc1 |  | 9.7 nM | 0.59 nM |  |  |  |
| N=C(N)Cc1c(C(=O)NN2CCOCC2)nn(-c2ccccc2Cl)c1-c1ccc(Cl)cc1 |  | 26 nM |  |  |  |  |
| NC(=O)Cc1c(C(=O)N2CCC(c3ncccn3)CC2)nn(-c2ccccc2Cl)c1-c1ccc(Cl)cc1 | 1.1 µM (≈ 0.589 µg/mL) | 0.71 nM | 0.3 nM | 2.6 | 1.4 nM |  |
| NC(=O)Cc1c(C(=O)NN2CCCCC2)nn(-c2ccccc2Cl)c1-c1ccc(Cl)cc1 | 4.5 µM (≈ 2.13 µg/mL) | 1.4 nM | 0.82 nM | 2.6 | 1.8 nM | bioavailability [3]: 2%; remaining at 0.5 h [8]: 72% |
| N#CCc1c(C(=O)N2CCC(c3ncccn3)CC2)nn(-c2ccccc2Cl)c1-c1ccc(Cl)cc1 |  | 3.8 nM |  |  |  |  |
| N=C(N)Cc1c(C(=O)NCc2ccc(F)cc2)nn(-c2ccccc2Cl)c1-c1ccc(Cl)cc1 |  | 1.2 nM | 0.79 nM |  |  |  |
| N=C(Cc1c(C(=O)N2CCC(c3ncccn3)CC2)nn(-c2ccccc2Cl)c1-c1ccc(Cl)cc1)NO |  | 21 nM |  |  |  |  |
| N#CCc1c(C(=O)NN2CCCCC2)nn(-c2ccccc2Cl)c1-c1ccc(Cl)cc1 |  |  | 1.8 nM |  |  |  |
| N=C(Cc1c(C(=O)Nc2ccc(F)cc2)nn(-c2ccccc2Cl)c1-c1ccc(Cl)cc1)NO |  | 1.1 nM |  |  |  |  |
| N=C(N)Cc1c(C(=O)NN2CCCCC2)nn(-c2ccccc2Cl)c1-c1ccc(Cl)cc1 |  | 0.93 nM | 0.4 nM |  |  |  |
| Cc1c(C(=O)NN2CCCCC2)nn(-c2ccc(Cl)cc2Cl)c1-c1ccc(Cl)cc1 [RIMONABANT] |  |  |  |  |  | solubility [1]: 10 µM (≈ 4.64 µg/mL); Activity [18]: 14.5; Activity [22]: Active |
